From US9932300B2, “N,N′-diarylurea compounds and N,N′-diarylthiourea compounds as inhibitors of translation initiation” (President and Fellows of Harvard College, priority 2009, dated 2018)

Test system: eIF2-GTP-Met-tRNAi ternary complex
Assay: Ternary complex assay (dual luciferase, firefly/renilla ratio) in stable KLN-tTA/pBISA-DL(ATF-4) cells; HTS and hit confirmation
Type: cell-based, mouse
Design: Activity 10 uM / Activity 2.5 uM / Activity 5 uM: unit not given here
Conditions: confirmed hits of the screen (Table 5); for Activity 5 uM: compound at 5 uM; for Activity 10 uM: compound at 10 uM; for Activity 2.5 uM: compound at 2.5 uM
Text: For assay development, a bi-directional plasmid was designed in which a common promoter/enhancer complex drives the transcription of firefly luciferase (F-luc) ORF fused to the 5′ untranslated region (UTR) of ATF-4, and of the renilla luciferase (R-luc) ORF fused to a 90-nucleotide 5′ UTR derived from the plasmid (FIG. 6A). Because the tetracycline-regulated transactivator ((tTA), required for driving transcription from this vector) is not normally expressed in the mammalian cells, stable KLN cancer cells were constructed that expressed tTA (KLN-tTA).
The KLN-tTA colonies that drove expression of reporter genes from pBISA-DL plasmid were selected by transient transfection and dual luciferase assay. One of these KLN-tTA cell lines was transfected with the pBISA-DL^(ATF-4) expression vector, stable colonies were selected by dual luciferase assay and expanded. To determine if reduced availability of the eIF2*GTP*Met-tRNAi ternary complex increased the translation of firefly luciferase and decreased translation of renilla luciferase, selected KLN-tTA/pBISA-DL^(AFT-4) colonies were treated with thapsigargin (TG) or tunicamycin (TU), two agents known to cause phosphorylation of eIF2α.
This assay was then adapted for high throughput screening in 96 and 384 well plates. This was done by evaluating the cell density, length of exposure to compounds, DMSO tolerance and optimum firefly and renilla substrate. We then challenged these cells with thapsigargin or DMSO. […] Cell-based assays usually have higher variation than homogeneous in vitro assays due to position effect in the plate, and other variables associated with handling of cells and the plates.
Screening was conducted in 384 well white opaque plates (Nalge Nunc), 100 μl volume RPMI+10% fetal bovine serum. Cells were plated at the sub-confluent density of 10,000 cells/well, and allowed to attach for a period of 16-18 hours at 37° C., 5% CO2. Compounds were added as 1 μl of a 1 mM DMSO stock solution for a final screening concentration of 10 μM, using low-volume tips for transfer (Molecular Bioproducts). Cells were then incubated in the presence of compound for an additional sixteen hours, again at 37° C., 5% CO2. Following incubation 70 μl of the culture medium was removed from each well to allow for reagent addition and plates were allowed to equilibrate to room temperature for thirty minutes. Firefly luciferase reporter activity was then read by the addition of thirty microliters of Dual Glo Luciferase reagent (Promega), followed by one hour incubation at room temperature to allow for adequate signal buildup. Luminescence counting was conducted on a Microbeta Trilux using a 1 second read time. Renilla luciferase reporter activity was measured following addition of 30 μl Stop and Glo Luciferase reagent (Promega) and incubation identical to the one carried out for the firefly luciferase one.
Compound scores were interpreted as firefly luciferase activity divided by renilla luciferase activity, normalized to the plate's DMSO control. […] All data analysis was conducted using the BioAssay HTS software package (CambridgeSoft).
102,709 compounds in the NCI Open Chemical Repository were then screened using this HTS assay. […] Initial hits were confirmed by repeating the same dual luciferase assay in 96 well plates. Briefly, 20,000 cells/well were plated in triplicate for each concentration (10, 5 and 2.5 μM) of the compounds.

Structure (SMILES) | Activity 5 uM | Activity 10 uM | Activity 2.5 uM
CCN(CC)c1ccc(C(O)C2=CC(=O)c3ccccc3C2=O)cc1 (centres unmarked) [Compound 58338] | 11.604 | 17.599 | 
COc1ccc(/C=C/c2ccc3ccccc3n2)cc1O.Cl [Compound 59070] | 6.227 | 7.423 | 
C[C@]12CC[C@H]3[C@@H](CCC4=CC(=O)CC[C@@H]43)[C@@H]1CC[C@@]2(O)C#CC#C[C@]1(O)CC[C@H]2[C@@H]3CCC4=CC(=O)CC[C@@H]4[C@H]3CC[C@@]21C [Compound 59465] | 1.8 | 6.8 | 
CCCCCCCC[N+](C)(CCCCCCCC)CCCCCCCC.[Cl-] [Compound 61369] | 3 | 4.4 | 
O=c1cc(-c2ccc3ccccc3n2)oc2ccc(Cl)cc12 [Compound 61626] | 2.793 | 3.1685 | 
CN(C)c1ccc(C=Cc2ccnc3ccccc23)cc1.Cl [Compound 63346] | 6.234 | 6.8235 | 
[Cl][Hg][Cl].c1cnccn1 [Compound 65429] |  |  | 3.49
S=P(Sc1ccccc1)(Sc1ccccc1)Sc1ccccc1 [Compound 65486] | 17.496 | 20.8755 | 
c1cc[c]([Hg][O]c2cccc3cccnc23)cc1 [Compound 66326] |  | 5.2 | 
Cc1ccc(N=P2(Nc3ccc(C)cc3)N=P(Nc3ccc(C)cc3)(N3CC3)NP(=Nc3ccc(C)cc3)(N3CC3)N2)cc1 (centres unmarked) [Compound 67112] | 3.1 | 16.3 | 
Cc1cc(N(CCCl)CCCl)ccc1N=Nc1ccccc1C(=O)[O-].Cc1cc(N(CCCl)CCCl)ccc1N=Nc1ccccc1C(=O)[O-].[Cu+2] [Compound 68292] | 7.2 | 18.3 | 
CCCCCCCCCCCC(c1ccccc1)[N+](C)(C)Cc1ccccc1.[Cl-] (centres unmarked) [Compound 69510] | 5.6 | 10.9 | 
O=C1C(Cl)=C(Cl)C(=O)N1c1cccc2c(N3C(=O)C(Cl)=C(Cl)C3=O)cccc12 [Compound 69580] | 3.5 | 6.4 | 
O=C(Nc1cccc(Cl)c1)Nc1cccc(Cl)c1 [Compound 69625] | 6.201 | 4.8565 | 
O=C(CCl)N1c2ccccc2Sc2ccccc21 [Compound 71676] | 2.922 | 4.1015 | 
Clc1cccc2ccc(-c3cc4ccccc4s3)nc12 [Compound 71689] | 5.724 | 7.139 | 
c1csc(-c2ccc3ccccc3n2)c1 [Compound 71690] | 2.889 | 3.4315 | 
O=C(/C=C/c1ccccc1)OC1CCCCC1 [Compound 71968] | 2.615 | 3.5615 | 
O=C(Nc1ccc(Cl)cc1)Nc1ccc(Cl)c(Cl)c1 [Compound 72005] | 11.25 | 16.9235 | 
O=C(OCCc1ccccc1)c1ccccc1O [Compound 72035] | 3.275 | 3.8265 | 
CCOC(=O)c1cnc(SCc2ccccc2)nc1N [Compound 72266] | 2.946 | 3.233 | 
COc1cc(NC(=O)c2cc3ccccc3cc2O)c(OC)cc1Cl [Compound 73118] | 8.006 | 10.008 | 
CCCCCCCCCCCCCCCCCC[N+](C)(C)C.Cc1ccc(S(=O)(=O)[O-])cc1 [Compound 74566] | 1.7 | 3.7 | 
CCCCCCCCCCCCCCCCCC[N+](C)(C)C.O=S(=O)([O-])c1ccccc1 [Compound 74568] | 2.1 | 4.8 | 
C(=P(c1ccccc1)(c1ccccc1)c1ccccc1)[P+](c1ccccc1)(c1ccccc1)c1ccccc1.[Br-] [Compound 74740] | 5.6 | 4.1 | 

Structure (SMILES) | Activity 5 uM | Activity 10 uM | Activity 2.5 uM
Cl.NC(N)=N/N=C/N/N=C/c1ccccc1O [Compound 75971] | 3.111 | 3.3355 | 
CC(=O)[O][Sn]([c]1ccccc1)([c]1ccccc1)[c]1ccccc1 [Compound 76068] |  | 3.68 | 1.02
Oc1ccccc1/C=N/NC(=S)Nc1ccc2cn[nH]c2c1 [Compound 76429] | 4.409 | 5.2405 | 
ClCCN(CCCl)c1ccc(C2=Nc3cccc4cccc(c34)N2)cc1 [Compound 78577] |  | 3.56 | 0.74
CCCCCCCCCCCC[n+]1ccc(C)cc1C.Cc1ccc(S(=O)(=O)[O-])cc1 [Compound 78949] | 4.1 | 7.7 | 
O=Nc1c2cc3ccccc3[nH]c-2c2ccccc12 [Compound 81523] | 7.526 | 8.879 | 
Clc1ccc(/C=N\N2CCCCCC2)cc1 [Compound 82278] | 3.288 | 3.1525 | 
CCCCCCCCCCCCCC[n+]1ccccc1.[Cl-] [Compound 82910] | 7.654 | 12.4425 | 
CCN(CC)c1ccc(/C=C2\C=Cc3ccccc32)cc1 [Compound 83089] | 10.155 | 5.1265 | 
O=[N+]([O-])c1ccc(N=Nc2c(Cl)cc(O)cc2Cl)cc1 [Compound 83318] | 12.03 | 14.6225 | 
CNc1c(F)cc(N=Nc2ccccc2)cc1F [Compound 83335] |  | 3.31 | 2.77
CCCCCCCCCCCC[N+](C)(C)C.[O-]c1c(Cl)c(Cl)c(Cl)c(Cl)c1Cl [Compound 85573] | 2.1 | 3.1 | 
CC(=O)c1cccc(N=NNc2cccc(C(C)=O)c2)c1 [Compound 85646] | 3.127 | 4.18 | 
C1=Cc2ccccc2/C1=C/c1ccc2c(c1)OCO2 [Compound 86430] | 4.871 | 6.063 | 
COc1ccc(NNc2ccc(OC)cc2)cc1 [Compound 86489] |  | 3.17 | 2.73
Cc1ccc(NN(C)c2ccc(C)cc2)cc1 [Compound 86537] |  | 7.51 | 3.85
Cc1ccc(NNc2ccc(C)cc2)cc1 [Compound 86544] | 3.954 | 4.845 | 
O=c1[nH]cnc2nc(-c3ccc(N(CCCl)CCCl)cc3)[nH]c12 [Compound 87086] | 6.572 | 5.461 | 
Br.CCC1=C(C)/C(=C/c2[nH]c(C)c(CC)c2C)N=C1C [Compound 87240] |  | 37.28 | 1.45
CN(C)c1ccc(N=Nc2ccc3ncccc3c2)cc1 [Compound 87323] | 5.277 | 6.0905 | 
OCCc1ccc(-n2cnc3c(Nc4ccc(Cl)cc4)ncnc32)cc1 [Compound 87695] |  | 4.42 | 3.28
O=Cc1cc(CCCCCCc2ccc(O)c(C=O)c2)ccc1O [Compound 88001] | 12 | 21.4655 | 
Cc1cc(N(CCCl)CCCl)ccc1CN1CCCN(Cc2ccc(N(CCCl)CCCl)cc2C)C1c1ccccc1O [Compound 88655] |  | 18.32 | 0.7
CN(CCC(=O)/C(=C\c1ccc(Cl)cc1)c1ccccc1)Cc1ccccc1.Cl [Compound 89160] |  |  | 9.22
